Calls of active or inactive are those of the source.
Key:
[1] = Luminescence Cell-Based Dose Retest to Confirm Inhibitors of Cancer Stem Cells. [Related pubchem assays (depositor defined):AID2717, AID2721]; assay type: functional, Homo sapiens; conditions: Homo sapiens
[2] = target: T1, Streptokinase A (Streptococcus pyogenes serotype M1, UniProt P10520); experiment: viability-normalized secreted streptokinase activity reduction – plasminogen activation absorbance, OD405, dose response (AID 1914); assay type: functional, Streptococcus pyogenes M1 GAS;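 further: secreted streptokinase activity via plasminogen activation per viability signal from cell pellet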
T1 sequence (P10520 whole entry): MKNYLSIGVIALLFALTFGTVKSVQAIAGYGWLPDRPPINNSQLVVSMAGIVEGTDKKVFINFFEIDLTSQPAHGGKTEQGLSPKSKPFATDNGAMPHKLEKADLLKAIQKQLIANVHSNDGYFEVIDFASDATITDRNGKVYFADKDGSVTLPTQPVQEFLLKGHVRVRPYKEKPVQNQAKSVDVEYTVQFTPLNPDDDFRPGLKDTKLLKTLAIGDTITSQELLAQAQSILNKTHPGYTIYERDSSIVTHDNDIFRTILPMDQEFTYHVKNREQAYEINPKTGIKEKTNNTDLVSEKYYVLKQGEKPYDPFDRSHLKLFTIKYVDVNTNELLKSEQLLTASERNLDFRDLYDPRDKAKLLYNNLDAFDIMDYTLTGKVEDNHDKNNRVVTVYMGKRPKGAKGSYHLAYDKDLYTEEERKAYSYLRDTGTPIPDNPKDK

[3] = system: Streptococcus; experiment: GAS UMAA2166 growth inhibition – luminescence, BacTiterGlo, counter-screen for streptokinase expression inhibitor project, dose response (AID 1915); assay type: functional, organism-based;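 further: potency for reduction of bacterial viability or growth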
[4] = system: Streptococcus sp. 'group A'; experiment: Streptococcus pyogenes SK(-)GAS viability under kanamycin – luminescence, BacTiterGlo, confirmation, counter-screen for streptokinase expression inhibitor project, dose response (AID 1900); assay type: functional, organism-based
[5] = target: T2, Replicative DNA helicase DnaB (Mycobacterium tuberculosis, UniProt P9WMR3); experiment: DnaB intein splicing inhibitors, dose response, biochemical, cell-free fluorescence (AID 449749); assay type: functional
T2 sequence (P9WMR3 whole entry): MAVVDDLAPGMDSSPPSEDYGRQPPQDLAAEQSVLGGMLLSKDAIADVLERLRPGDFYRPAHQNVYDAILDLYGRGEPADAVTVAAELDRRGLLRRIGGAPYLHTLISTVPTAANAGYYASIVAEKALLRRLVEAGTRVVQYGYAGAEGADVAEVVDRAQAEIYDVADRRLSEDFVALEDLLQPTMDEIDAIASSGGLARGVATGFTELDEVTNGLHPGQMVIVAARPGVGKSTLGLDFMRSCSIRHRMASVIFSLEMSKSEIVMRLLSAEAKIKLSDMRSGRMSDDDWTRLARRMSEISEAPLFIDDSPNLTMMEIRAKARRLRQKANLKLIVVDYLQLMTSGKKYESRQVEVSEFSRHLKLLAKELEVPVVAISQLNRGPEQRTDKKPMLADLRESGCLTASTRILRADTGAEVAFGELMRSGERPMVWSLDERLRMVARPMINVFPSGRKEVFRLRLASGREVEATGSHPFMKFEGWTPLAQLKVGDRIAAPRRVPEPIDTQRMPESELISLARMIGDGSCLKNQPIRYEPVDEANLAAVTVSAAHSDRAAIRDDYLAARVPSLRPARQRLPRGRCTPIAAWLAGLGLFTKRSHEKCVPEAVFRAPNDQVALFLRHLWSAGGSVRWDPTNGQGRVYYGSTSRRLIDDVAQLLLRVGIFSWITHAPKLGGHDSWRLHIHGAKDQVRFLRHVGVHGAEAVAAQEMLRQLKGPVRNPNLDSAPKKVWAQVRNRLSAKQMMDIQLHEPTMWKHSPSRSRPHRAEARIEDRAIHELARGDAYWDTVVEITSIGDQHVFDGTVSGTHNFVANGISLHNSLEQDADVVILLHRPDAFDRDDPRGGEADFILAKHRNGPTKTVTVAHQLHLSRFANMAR

[6] = target: Cytochrome P450 2C19 (Homo sapiens, UniProt P33261); experiment: Cytochrome panel assay with activity outcomes. Panel member name: p450-cyp2c19 Compounds with AC50 equal or less than 10 uM are considered active; assay type: functional
Sequence of Cytochrome P450 2C19 (P33261 whole entry): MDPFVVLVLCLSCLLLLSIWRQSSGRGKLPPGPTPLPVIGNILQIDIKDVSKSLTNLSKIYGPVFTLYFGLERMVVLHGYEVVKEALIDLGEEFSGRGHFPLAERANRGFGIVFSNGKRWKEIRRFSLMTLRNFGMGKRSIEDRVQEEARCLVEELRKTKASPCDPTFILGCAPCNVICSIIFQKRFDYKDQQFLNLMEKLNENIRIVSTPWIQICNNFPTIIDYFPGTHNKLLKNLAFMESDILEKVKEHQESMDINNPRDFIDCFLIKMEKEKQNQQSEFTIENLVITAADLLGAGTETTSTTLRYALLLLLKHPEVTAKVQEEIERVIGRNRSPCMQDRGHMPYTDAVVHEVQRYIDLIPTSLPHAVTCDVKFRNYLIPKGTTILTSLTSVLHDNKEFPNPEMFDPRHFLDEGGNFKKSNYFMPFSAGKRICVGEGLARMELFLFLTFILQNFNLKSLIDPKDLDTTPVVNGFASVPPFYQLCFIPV

[7] = target: T3, Protein RecA (Mycobacterium tuberculosis, UniProt P9WHJ3); experiment: Fluorescence Cell-Free Homogeneous Dose Retest to Identify Inhibitors of RecA-Intein Splicing Activity. [Related pubchem assays (depositor defined):AID2097, AID2223, AID489010, AID492950]; assay type: functional
T3 sequence (P9WHJ3 whole entry): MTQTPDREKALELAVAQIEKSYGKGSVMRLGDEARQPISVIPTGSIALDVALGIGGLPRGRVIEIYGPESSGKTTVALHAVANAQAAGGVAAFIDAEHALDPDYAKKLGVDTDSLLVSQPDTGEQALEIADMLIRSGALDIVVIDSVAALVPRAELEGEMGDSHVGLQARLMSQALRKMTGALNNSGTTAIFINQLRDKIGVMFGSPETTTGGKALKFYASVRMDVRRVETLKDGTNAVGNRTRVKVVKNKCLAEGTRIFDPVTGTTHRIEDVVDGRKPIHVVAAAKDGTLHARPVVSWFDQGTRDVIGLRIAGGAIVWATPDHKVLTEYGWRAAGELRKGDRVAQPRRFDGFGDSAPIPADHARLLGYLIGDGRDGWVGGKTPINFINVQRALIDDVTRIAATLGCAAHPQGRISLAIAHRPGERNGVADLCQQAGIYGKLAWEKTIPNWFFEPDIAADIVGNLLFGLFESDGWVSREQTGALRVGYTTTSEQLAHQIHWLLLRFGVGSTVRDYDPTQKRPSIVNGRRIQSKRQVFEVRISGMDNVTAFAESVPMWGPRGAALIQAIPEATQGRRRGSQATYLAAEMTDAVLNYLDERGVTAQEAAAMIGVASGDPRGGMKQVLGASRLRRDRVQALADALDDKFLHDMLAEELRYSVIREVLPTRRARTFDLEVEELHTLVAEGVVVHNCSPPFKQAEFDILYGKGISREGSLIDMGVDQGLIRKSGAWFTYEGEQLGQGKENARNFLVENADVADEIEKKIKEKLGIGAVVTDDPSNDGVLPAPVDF

[8] = Luminescence Cell-Based Dose Response HTS to Identify Activators of Luciferase Translation or Activity in H4 […] Cells. [Related pubchem assays: 1829 (Project Summary), 1814 (Primary HTS)]; assay type: functional
[9] = system: H4; experiment: Luminescence Cell-Based Dose Response HTS to Identify Activators of 5'UTR Stem-Loop Driven Prion Protein mRNA Translation in H4 Neuroglioblastoma Cells. [Related pubchem assays: 1829 (Project Summary), 1814 (Primary HTS)]; assay type: functional; conditions: Homo sapiens
[10] = alpha-synuclein stem-loop luciferase translation blockers – H4 neuroglioma cells, luminescence, confirmation (AID 1988); assay type: functional, cell-based
[11] = NIH-3T3 fibroblast cytotoxicity, dose response, cytotoxicity control, cell-based, fluorescence, Alamar Blue, secondary assay (AID 2327); assay type: functional;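 further: NIH-3T3 mouse fibroblasts cultured with fluconazole at 8 µg/mL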
[12] = target: Cytochrome P450 2C9 (Homo sapiens, UniProt P11712)
Sequence of Cytochrome P450 2C9 (P11712 whole entry): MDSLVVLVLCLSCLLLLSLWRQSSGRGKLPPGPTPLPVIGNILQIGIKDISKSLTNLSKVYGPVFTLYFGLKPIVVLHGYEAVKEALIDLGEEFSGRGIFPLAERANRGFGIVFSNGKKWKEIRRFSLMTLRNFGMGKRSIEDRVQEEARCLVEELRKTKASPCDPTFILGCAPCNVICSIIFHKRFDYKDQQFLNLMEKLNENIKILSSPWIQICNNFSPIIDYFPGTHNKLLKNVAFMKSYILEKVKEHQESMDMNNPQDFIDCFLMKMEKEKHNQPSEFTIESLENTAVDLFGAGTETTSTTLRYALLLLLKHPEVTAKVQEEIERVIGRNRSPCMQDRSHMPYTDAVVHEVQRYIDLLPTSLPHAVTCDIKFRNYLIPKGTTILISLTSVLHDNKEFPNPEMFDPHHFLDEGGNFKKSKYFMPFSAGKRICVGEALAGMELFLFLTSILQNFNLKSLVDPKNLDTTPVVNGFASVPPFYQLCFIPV

[13] = system: INS1; experiment: INS-1E survival protection against cytokine death – cell-based, luminescence, retest, dose response (AID 449756); assay type: functional; conditions: Rattus norvegicus;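 further: cell death triggered by IL-1 beta plus TNF-alpha plus IFN-gamma mixture; protective hits raise ATP signal compared with cytokine alone wells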

SMILES | AC50 [1] | AC50 [5] | EC50 [7] | other results
COc1ccc(/C=N/NC(=O)c2cc(C34CC5CC(CC(C5)C3)C4)[nH]n2)cc1O | 1.16 µM (active) | – | – | –
CC[C@@H]1CC=C[C@H]2[C@H]1C(=O)N(Cc1ccccc1)[C@H]2c1ccc(OC)c(Cl)c1 | 6.12 µM (active) | – | – | EC50 [2]: 4.05 µM (active); EC50 [3]: 16 µM (active); EC50 [4]: 6.67 µM (active)
O=c1cc(N2CCCCC2)c(-c2ccccc2)nn1Cc1ccc(Cl)cc1Cl | 1.65 µM (active) | – | – | EC50 [2]: > 150 µM (not active); EC50 [3]: 8.6 µM (active); EC50 [4]: 3.19 µM (active)
CC(=O)NC1=NN(c2ccccc2)C(=O)C1 | – | 33.5 µM (active) | 5.21 µM (active) | AC50 [6]: inconclusive
NC(=O)CC(NC(=O)Cc1cccc2ccccc12)c1ccc(NC2CCCCCCC2)c([N+](=O)[O-])c1 (configuration not stated) | 14.1 µM (active) | – | – | –
CCN(CC)S(=O)(=O)c1cccc(C(=O)N/N=C/c2cccc(O)c2O)c1 | 8.97 µM (active) | – | – | –
O=C(/C(=C\c1ccccc1)c1nc2ccccc2[nH]1)c1ccc(Cl)cc1 | 3.28 µM (active) | – | – | –
COC(=O)CN1C(=O)C2(C(C#N)=C(N)Oc3c2c(C)nn3-c2ccccc2)c2ccccc21 (configuration not stated) | – | 7.38 µM (active) | 3.38 µM (active) | –
COc1ccc2cc(/C=N/NC(=O)c3ccc(CN(c4cccc(Cl)c4Cl)S(C)(=O)=O)cc3)c(Cl)nc2c1 | < 0.16 µM (active) | – | – | –
O=c1cc(-c2ccccc2)[nH]n1-c1nc2ccccc2s1 | 2.45 µM (active) | – | – | EC50 [2]: > 150 µM (not active); EC50 [3]: 10.3 µM (active); EC50 [4]: 2.43 µM (active)
Cn1c(N)c(C(=O)COC(=O)c2ccccc2C(=O)c2ccc(Cl)c([N+](=O)[O-])c2)c(=O)n(C)c1=O | 4.25 µM (active) | – | – | –
Cc1c(C(=O)N2CCOCC2)sc2nc(-c3ccccc3)cn12 | – | – | – | EC50 [8]: 3.66 µM (active); EC50 [9]: 28.8 µM (active)
COc1ccc(N2CCN(C(=O)c3ccc(Oc4ccc(C(F)(F)F)cn4)cc3)CC2)cc1 | – | 121 µM (active) | > 380 µM (inactive) | –
CC(C)COc1ccc2[nH]c3c(c2c1)CCCC3=O | – | – | – | EC50 [10]: 10.6 µM (active)
CN1/C(=C\C(=O)Nc2ccc(Br)cc2)C(C)(C)c2ccccc21 | 5.09 µM (active) | – | – | –
CC(C)=CCCC1(C)C=Cc2c(ccc3c2[nH]c2cc(O)c(C)cc23)O1 (configuration not stated) | 2.9 µM (active) | – | – | EC50 [3]: 6.72 µM (active); EC50 [4]: 2.31 µM (active)
COc1ccc(-n2nc3c(N4CCC(C(=O)NCCc5ccccc5C)CC4)nnc(C)c3c2C)cc1 | 4.03 µM (active) | – | – | –
COc1ccc(-c2sc3ccccc3c2-c2ccc(O)cc2)cc1 | 3.35 µM (active) | – | – | –

SMILES | AC50 [1] | AC50 [5] | EC50 [7] | other results
Cc1cc(C)c(OCCCCN2CCNCC2)c(C)c1 | 3.23 µM (active) | – | – | –
CC(O)CC(C(=O)NNc1ccccc1)C(=O)NNc1ccccc1 (configuration not stated) | 0.489 µM (active) | – | – | –
Oc1cccc(/C=N/c2cccc3ccccc23)c1O | – | 3.04 µM (active) | 10.1 µM (active) | –
COc1ccc(C(=O)/C(=C/c2cccs2)c2nc3ccccc3o2)cc1 | – | > 380 µM (inactive) | > 380 µM (inactive) | –
CCOCC(=O)NCc1ccc2c(c1)cc(C)n2C | – | > 380 µM (inactive) | 23.6 µM (active) | –
Clc1ccc(-c2c[n+](Cc3ccc(Br)cc3)c3n2CCCCC3)cc1 | – | – | – | EC50 [11]: > 150 µM (inconclusive)
COc1cc(OC)cc(-c2nnc(SCC(=O)N(Cc3ccccc3)C(C)(C)C)o2)c1 | 0.618 µM (active) | – | – | –
O=C(Nc1cc(C(F)(F)F)ccc1N1CCCCC1)c1ccc(Br)o1 | 4.94 µM (active) | – | – | AC50 [12]: 1.41 µM (inconclusive)
COc1cccc(C=O)c1OCCCOc1cccc2cccnc12 | – | – | – | EC50 [8]: 16.4 µM (active); EC50 [9]: 28.1 µM (active)
CO/C(O)=C1/C(C)=NC(=S)NC1c1ccc(OC(=O)c2ccco2)cc1 (configuration not stated) | – | 33.1 µM (active) | 14.4 µM (active) | –
COC(=O)Cc1n[nH]c2c1C1(CCSCC1)C(C#N)=C(N)O2 | – | 10.8 µM (active) | 1.99 µM (active) | –
COc1ccc(-c2cn(Cc3ccc(C(=O)c4ccccc4)cc3)nn2)cc1 | – | – | – | AC50 [13]: 9.37 µM (active); EC50 [8]: 90.4 µM (active); EC50 [9]: 21.2 µM (active)
COc1ccccc1Oc1cc(C#N)c(C#N)cc1-n1nnc2ccccc21 | – | 20.2 µM (active) | 3.77 µM (active) | –
COC(=O)Cc1cc(=O)n(-c2ccccc2)[nH]1 | – | 17.6 µM (active) | 14 µM (active) | –
Cc1cc(C)cc(S(=O)(=O)c2cnc3ccccc3n2)c1 | – | 20.2 µM (active) | 4.26 µM (active) | –
COc1ccc(/C(=N/OC(C)=O)c2nccc3cc(OC)c(OC)cc23)cc1OC | – | > 380 µM (inactive) | 36.3 µM (active) | –
CC1=NNC(=O)C1C(c1ccccc1)C1C(=O)NN=C1C (configuration not stated) | – | 0.383 µM (active) | 0.194 µM (active) | –
C/C(=N\NC(=O)Cc1cc(O)[nH]n1)c1cccc([N+](=O)[O-])c1 | – | 2.73 µM (active) | 1.31 µM (active) | –

Reference: ChEMBL document CHEMBL1201862, “PubChem BioAssay data set” (2004)
